{"source": "patent US4845029A", "about": "“Method for the determination of sarcosine creatine or creatinine” (Boehringer Mannheim GmbH, priority 1985, dated 1989)", "type_in_all_cases": "biochemical", "key": {"[1]": {"system": "sarcosine oxidase according to the present invention, obtainable from Streptomycetaceae", "test": "KM and Vmax for sarcosine", "details": "substrate sarcosine", "method": "In contradistinction thereto, the KM values of the known sarcosine oxidases which are sufficiently stable for these determinations are, under these conditions, abou 16 to 20 mmol/liter.\n(§1) The KM values for sarcosine (phosphate buffer; TES buffer), measured at 25° C. in various stressing reagents, are 2 to 3 mmol/litre. The Vmax is about 6 U/mg. protein. The followig Table I gives, for various preparations of the enzyme according to the present invention, the KM values for sarcosine measured at 25 and at 37° C. For comparison, there are given the corresponding values for the known Bacillus enzyme."}, "[2]": {"system": "sarcosine oxidase (E.C. 1.5.3.1) from Chainia purpurogena (DSM 43 156), pure enzyme", "test": "KM value for sarcosine in stressing reagent a", "details": "pH 7.9, detergent-containing", "method": "as §1\n(§2) 0.15 mole potassium phosphate or 0.1 mole TES/KOH (pH 7.9), 8.6 mmole 2,4,6-tribromo-3-hydroxybenzoic acid, 0.8 mmole 4-aminoantipyrine, 10 μmole potassium ferrocyanide, 5 mmole sodium cholate, 0.5% Lutensol ON 50, 0.2% sodium azide, 0.5 mmole Titriplex III, 2000 U lipase, 2000 U peroxidase and 10000 U ascorbate oxidase, per liter. [Lutensol ON 50 ^R is obtained from BASF AG and is n-decanol-polyglycolether having an average of 5 ethylene glycol units per molecule i.e. CH3 -(CH2)9 -(OCH2 -CH2)5 -OH. Titriplex III is the disodium salt of ethylenediaminetetracetic acid and can be obtained from Merck.]"}, "[3]": {"system": "sarcosine oxidase from Streptomyces flocculus (DSM 40 327), crude extract supernatant", "test": "KM value for sarcosine in stressing reagent a", "details": "37 °C, TES buffer, pH 7.9, detergent-containing", "method": "as §1, §2"}, "[4]": {"system": "sarcosine oxidase from Chainia purpurogena, crude extract supernatant", "test": "KM value for sarcosine in stressing reagent a", "details": "37 °C, pH 7.9, detergent-containing", "method": "as §1, §2"}, "[5]": {"system": "known sarcosine oxidase from Bacillus sp. (comparison enzyme)", "test": "KM value for sarcosine in stressing reagent a", "details": "pH 7.9, detergent-containing", "method": "as §1, §2"}}, "data": [{"smiles": "CNCC(=O)O", "note": "[sarcosine]", "values": [{"measurement": "Vmax", "setting": "[1]", "result": "about 6 U/mg. protein"}, {"measurement": "Km", "setting": "[2]; 25 °C, TES buffer", "result": 2.8, "unit": "mM"}, {"measurement": "Km", "setting": "[2]; 25 °C, phosphate buffer", "result": 2, "unit": "mM"}, {"measurement": "Km", "setting": "[2]; 37 °C, TES buffer", "result": 3, "unit": "mM"}, {"measurement": "Km", "setting": "[2]; 37 °C, phosphate buffer", "result": 3.5, "unit": "mM"}, {"measurement": "Km", "setting": "[3]", "result": 3.5, "unit": "mM"}, {"measurement": "Km", "setting": "[4]; TES buffer", "result": 3, "unit": "mM"}, {"measurement": "Km", "setting": "[4]; phosphate buffer", "result": 3, "unit": "mM"}, {"measurement": "Km", "setting": "[5]; 25 °C, TES buffer", "result": 20, "unit": "mM"}, {"measurement": "Km", "setting": "[5]; 25 °C, phosphate buffer", "result": 16, "unit": "mM"}, {"measurement": "Km", "setting": "[5]; 37 °C, TES buffer", "result": 20, "unit": "mM"}, {"measurement": "Km", "setting": "[5]; 37 °C, phosphate buffer", "result": 18, "unit": "mM"}]}]}
